In patent US6800467B1, “Polypeptides having aminopeptidase activity and nucleic acids encoding same” (Novozymes Biotech, Inc., priority 1997, dated 2004):

Target: T1, aminopeptidase II (Aspergillus oryzae, UniProt Q2ULM2)
T1 construct: the first 15 amino acids likely comprise a secretory signal peptide; made in house; host or cells: Aspergillus oryzae JaL142-6 (alkaline protease-deficient), plasmid pEJG19; purified from shake flask supernatant on Q-Sepharose
Assay: Inhibition of the aminopeptidase II with 1,10-phenanthroline, Leu-pNA as substrate
Format: biochemical
Details: pH 7.5
Procedure: Inhibition of the aminopeptidase II with 1,10-phenanthroline was evaluated using Leu-pNA as substrate at pH 7.5 in 50 mM Tris pH 7.5 buffer where hydrolysis was monitored at 405 nm. A 200 mM solution of 1,10-phenanthroline in methanol was prepared. The inhibition reaction was conducted by mixing 100 μl of 2 mg of Leu-pNA per ml of 50 mM sodium phosphate pH 7.5 solution and 10 μl of the 1,10-phenanthroline solution with 100 μl of aminopeptidase II diluted 5-fold in 50 mM sodium phosphate pH 7.5 buffer. A control was run where 10 μl of 20 mM Tris pH 7.6 buffer was used in place of the 1,10-phenantholine solution.

T1 sequence (Q2ULM2 17-496): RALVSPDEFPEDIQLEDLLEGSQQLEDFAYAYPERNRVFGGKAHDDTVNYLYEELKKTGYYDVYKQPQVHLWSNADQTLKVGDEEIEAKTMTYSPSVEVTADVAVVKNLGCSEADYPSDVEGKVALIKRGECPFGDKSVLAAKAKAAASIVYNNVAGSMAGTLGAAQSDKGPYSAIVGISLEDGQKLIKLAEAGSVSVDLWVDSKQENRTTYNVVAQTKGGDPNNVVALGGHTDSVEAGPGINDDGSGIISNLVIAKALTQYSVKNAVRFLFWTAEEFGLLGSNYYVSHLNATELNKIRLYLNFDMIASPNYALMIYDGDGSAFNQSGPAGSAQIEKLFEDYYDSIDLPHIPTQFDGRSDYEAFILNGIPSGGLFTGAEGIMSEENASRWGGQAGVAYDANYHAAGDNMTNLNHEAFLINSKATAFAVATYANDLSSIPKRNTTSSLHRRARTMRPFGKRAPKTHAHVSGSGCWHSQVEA

Structure (SMILES): c1cnc2c(c1)ccc1cccnc12 [1,10-phenanthroline]
- Inhibition of the aminopeptidase II (Leu-pNA as substrate, 10 μl of 200 mM 1,10-phenanthroline in methanol): inhibited
- rate of hydrolysis of Leu-pNA in the presence of 1,10-phenanthroline (control without inhibitor 285 mOD/minute): 21 mOD/minute
